The text below walks through data of article PMC10674565 (Pharmaceuticals, 2023).

SMILES strings stand for the structures.

The target of data set [1] is ABCB1 (Homo sapiens, UniProt P08183). Kind of data set: Effect on ABCB1-mediated transport of fexofenadine through the Caco-2 cells monolayer. As for the experimental part: Transport experiments were carried out in Transwell® systems (12 mm Transwell® with 0.4 µm Pore Polycarbonate Membrane Insert, Sterile, «Corning»). The Transwell® system consists of two chambers, apical and basolateral. […] The medium was changed every 2–3 days. The apical and basolateral chambers represent the luminal and blood/mesenteric lymph sides of the gastrointestinal tract, respectively.
The transepithelial electrical resistance (TEER) across the cell monolayers was monitored using a Millicell-ERS (electrical resistance system) to assess cell monolayer integrity. For transport studies, only monolayers with a TEER > 500 Ω cm^2 were used.
To study the roles of different parts of the EMHPS molecule for its action on ABCB1, experiments with succinic acid were also carried out.
Prior to the transport experiments, the culture media was aspirated, and the monolayers were washed twice with transport medium and preincubated with EMHPS, succinic acid, or verapamil for 30 min.
The data are presented as the mean ± SD from three monolayers.
The resulting sample of the transport medium (50 μL) was diluted in 150 μL of the mobile phase, and 100 μL of the resulting solution was injected into the chromatograph. A Phenomenex Synergi 4u Polar-RP 80A (250 × 4.6) chromatographic column was used for analysis. The separation temperature was 35 °C; the flow rate was 1 mL/min. Composition of the mobile phase: acetonitrile (128 mL), deionized water (267.4 mL), acetic acid (6.33 mL), triethylamine to pH = 6.7. […] Detection was carried out at a wavelength of 220 nm.
Half maximal inhibitory concentration (IC50) values were determined through nonlinear regression based on the three-parameter logistic function.
A general note: Passage across Caco-2 layers is used to estimate intestinal permeability.

Data set [2] deals with ABCB1. Kind of data set: Effect on expression of ABCB1 in Caco-2 cells (Western blot). The data set is classed as cell-based, human. The settings on record: 1, 10, and 100 µM, 24 h incubation. The procedure: (§1) To test the effect of EMHPS on the expression of ABCB1 and SLCO1B1, Caco-2 or HepG2 cells, respectively, were cultured on a 6-well plate. EMHPS was used at concentrations of 1, 10, and 100 µM, and the duration of exposure was 24 h. After the incubation, the cells were removed from the surface of the wells with a trypsin–EDTA solution (0.25% trypsin and 0.2% EDTA, Sigma-Aldrich, St. Louis, MO, USA).
(§2) The expression levels of ABCB1 and SLCO1B1 were analyzed via Western blot.
(§3) Cells were lysed with NP40 Cell Lysis Buffer Thermo (Thermo Fisher Scientific) with protease inhibitors (Sigma Aldrich, St. Louis, MO, USA) for 30 min at +4 °C with constant stirring at a rate of 10^7 cells per 100 µL of buffer. Protein concentrations were quantified with the Pierce Coomassie Plus Assay Kit (Thermo Fisher, Rockford, IL, USA). […]
The protein content was measured relative to the level of housekeeping protein GAPDH (primary antibodies: GAPDH Loading Control Monoclonal Antibody (GA1R) and […] (Invitrogen); secondary antibodies: secondary rabbit antibodies to primary GAPDH antibodies—Rabbit-anti-Mouse IgG (H + L) Secondary Antibody and HRP (Invitrogen). Chemiluminescence was recorded using ChemiDocXRS+ (Bio-Rad). The intensity of the obtained bands was analyzed densitometrically using ImageLab 6.0.0 software (Bio-Rad).

In data set [3] the test system is SLCO1B1. In words: Effect on expression of SLCO1B1 in HepG2 cells (Western blot). The data set is classed as cell-based, human. The settings on record: 1, 10, and 100 µM, 24 h incubation. As for the experimental part: The HepG2 cell line was purchased from American Type Culture Collection (Institute of Cytology, Russian Academy of Sciences, Moscow, Russia). Cells were cultured in Dulbecco’s modified Eagle’s medium containing 15% fetal bovine serum, 2 mM l-glutamine, 100 units/mL penicillin G, and 100 μg/mL streptomycin in an atmosphere of 5% CO2 at 37 °C on a 24-well plate until a monolayer was formed. HepG2 cells were used to test the effect of EMHPS on the expression of SLCO1B1.
as §1, §2, §3

Data set [4] concerns the target T1, SLCO1B1 (Homo sapiens, UniProt Q9Y6L6).
T1 sequence (Q9Y6L6 1-691): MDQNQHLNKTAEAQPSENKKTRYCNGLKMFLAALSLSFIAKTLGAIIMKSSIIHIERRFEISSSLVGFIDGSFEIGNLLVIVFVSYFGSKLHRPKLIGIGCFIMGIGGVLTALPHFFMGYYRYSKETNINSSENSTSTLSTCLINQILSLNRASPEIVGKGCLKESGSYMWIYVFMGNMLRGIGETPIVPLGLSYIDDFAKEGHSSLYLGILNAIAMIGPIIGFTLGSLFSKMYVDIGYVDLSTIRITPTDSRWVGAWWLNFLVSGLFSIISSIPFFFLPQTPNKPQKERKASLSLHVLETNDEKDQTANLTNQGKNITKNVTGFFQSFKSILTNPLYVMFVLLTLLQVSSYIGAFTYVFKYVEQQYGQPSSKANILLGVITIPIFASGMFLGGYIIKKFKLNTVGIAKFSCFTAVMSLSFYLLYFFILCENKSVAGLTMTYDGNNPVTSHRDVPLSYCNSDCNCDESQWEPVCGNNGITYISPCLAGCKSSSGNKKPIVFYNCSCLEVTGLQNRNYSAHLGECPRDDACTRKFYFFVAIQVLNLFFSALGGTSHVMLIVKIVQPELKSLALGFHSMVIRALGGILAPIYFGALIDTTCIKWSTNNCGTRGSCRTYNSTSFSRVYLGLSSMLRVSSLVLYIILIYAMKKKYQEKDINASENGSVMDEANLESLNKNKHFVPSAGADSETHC
Conditions: HEK293-SLCO1B1 vs HEK293, 10 µM.

Setting [5] is: human, Caco-2 cell monolayer on Transwell inserts, probe fexofenadine 150 µmol/L.

ABCB1 (Homo sapiens, UniProt P08183), sequence (P08183 whole entry): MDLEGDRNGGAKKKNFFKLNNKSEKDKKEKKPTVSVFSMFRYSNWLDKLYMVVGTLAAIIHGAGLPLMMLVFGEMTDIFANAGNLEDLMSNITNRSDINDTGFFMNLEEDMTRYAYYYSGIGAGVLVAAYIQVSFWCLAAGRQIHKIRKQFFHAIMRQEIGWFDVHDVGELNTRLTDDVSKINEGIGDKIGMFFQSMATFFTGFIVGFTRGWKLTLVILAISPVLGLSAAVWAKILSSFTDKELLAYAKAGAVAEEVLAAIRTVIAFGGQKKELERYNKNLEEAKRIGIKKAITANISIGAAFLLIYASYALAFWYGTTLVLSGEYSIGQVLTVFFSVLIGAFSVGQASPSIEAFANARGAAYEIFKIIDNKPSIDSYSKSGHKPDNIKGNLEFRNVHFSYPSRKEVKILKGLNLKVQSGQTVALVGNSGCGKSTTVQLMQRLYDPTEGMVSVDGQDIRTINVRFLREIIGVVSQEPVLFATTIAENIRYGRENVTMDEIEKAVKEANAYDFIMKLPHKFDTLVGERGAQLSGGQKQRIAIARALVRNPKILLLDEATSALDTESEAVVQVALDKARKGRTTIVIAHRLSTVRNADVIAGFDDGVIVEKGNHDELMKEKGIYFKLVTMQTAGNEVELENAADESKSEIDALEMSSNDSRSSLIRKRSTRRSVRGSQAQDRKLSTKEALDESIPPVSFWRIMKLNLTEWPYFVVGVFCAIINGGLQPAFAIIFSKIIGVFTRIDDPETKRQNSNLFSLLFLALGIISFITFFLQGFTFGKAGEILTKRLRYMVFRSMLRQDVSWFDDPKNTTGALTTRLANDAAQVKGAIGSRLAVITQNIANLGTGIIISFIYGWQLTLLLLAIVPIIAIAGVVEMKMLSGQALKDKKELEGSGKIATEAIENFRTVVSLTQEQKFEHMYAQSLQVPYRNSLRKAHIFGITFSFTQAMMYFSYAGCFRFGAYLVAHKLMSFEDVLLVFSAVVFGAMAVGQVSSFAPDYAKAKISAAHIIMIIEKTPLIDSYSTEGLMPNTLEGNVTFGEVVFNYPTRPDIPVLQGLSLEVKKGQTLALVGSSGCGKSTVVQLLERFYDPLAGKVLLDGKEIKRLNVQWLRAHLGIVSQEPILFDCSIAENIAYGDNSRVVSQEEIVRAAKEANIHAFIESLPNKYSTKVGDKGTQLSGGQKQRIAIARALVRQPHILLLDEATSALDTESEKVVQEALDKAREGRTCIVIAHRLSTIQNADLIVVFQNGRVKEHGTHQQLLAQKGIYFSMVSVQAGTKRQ

Regarding `CCc1nc(C)ccc1O.O=C(O)CCC(=O)O` [EMHPS, 2-Ethyl-6-methyl-3-hydroxypyridine succinate], the IC50 at ABCB1 [1] came to 92 ± 24.3 µM. For the same compound, the “decrease of basal-to-apical fexofenadine transport” value on ABCB1 [1] (200 µM, vs control, Caco-2 monolayer) turned out to be 52.5%. For the same compound, at ABCB1 [1] (setting [5]), the inhibition at 50 µM came out at 50.2%, the inhibition at 100 µM worked out at 72.9% and the inhibition at 200 µM was 90.6%. The “effect on expression of ABCB1” value in the data set with ABCB1 [2] is “did not significantly affect”. Further, the “effect on expression of SLCO1B1” value in the data set with SLCO1B1 [3] was “did not significantly affect”. Further, the “substrate of SLCO1B1” value at SLCO1B1 [4] is recorded as “not a substrate of SLCO1B1”.

By IC50 is commonly meant the concentration at which inhibition is half-maximal. The term inhibition denotes the change of the read-out against control, counted positive when it falls.
